Test results from the supplement of paper PMC10627819.

Key:
[1] = test system: S. aureus Newman; test: fitness (endpoint OD595 vs no drug) (fraction); higher = more growth; conditions: main component drawn
How it was run: (§1)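 Fitness compares growth at the stationary-phase transition with the robust mean of no-drug control wells, as a ratio of optical densities. The ratio is capped at 1. Wells of 384-well plates held 30 µl, or 55 µl for S. pneumoniae, inoculated at OD595 0.01. Readings at OD595 every 30 min for 14 h at 37 °C were corrected against the first reading.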

[2] = test system: S. aureus DSM 20231; test: as above
How it was run: as §1

[3] = test system: B. subtilis 168; test: Bliss interaction score (quartile over a dose matrix) (fitness difference); higher = more antagonism (negative = synergy)
How it was run: (§2)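 The Bliss score is observed minus expected fitness, where expected fitness is the product of the single-drug fitness values inferred from the combination data. Fitness is the OD595 at the onset of stationary phase over the plate's robust no-drug mean, capped at 1. Scores are summarised by quartiles over technical, biological and donor/recipient replicates.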

[4] = test system: S. pneumoniae D39V; test: as above
How it was run: as §2

[5] = test system: S. aureus Newman; test: as above
How it was run: as §2

[6] = test system: S. aureus DSM 20231; test: as above
How it was run: as §2

[7] = test system: B. subtilis 168; test: fitness (endpoint OD595 vs no drug) (fraction); higher = more growth
How it was run: as §1

[8] = test system: S. pneumoniae D39V; test: as above
How it was run: as §1
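Throughout, for Bliss interaction score (quartile over a dose matrix): first quartile when negative (synergy) and third quartile when positive (antagonism).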
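Throughout, for fitness (endpoint OD595 vs no drug): OD595 on entry to stationary phase over no-drug wells; at most 1.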

C[C@@H]1O[C@@H]1P(=O)(O)O [Fosfomycin] + CCCCCCCCCC(=O)N[C@@H]1[C@H]([C@@H]([C@H](O[C@H]1OC2=C3C=C4C=C2OC5=C(C=C(C=C5)[C@H]([C@H]6C(=O)N[C@@H](C7=C(C(=CC(=C7)O)OC8[C@H]([C@H]([C@@H]([C@H](O8)CO)O)O)O)C9=C(C=CC(=C9)[C@H](C(=O)N6)NC(=O)[C@@H]4NC(=O)[C@@H]1C2=CC(=CC(=C2)OC2=C(C=CC(=C2)[C@H](C(=O)N[C@H](CC2=CC(=C(O3)C=C2)Cl)C(=O)N1)N)O)O)O)C(=O)O)O[C@H]1[C@@H]([C@H]([C@@H]([C@H](O1)CO)O)O)NC(=O)C)Cl)CO)O)O [Teicoplanin]
fitness, [1]
Conditions | first compound 0.781 µg/mL | first compound 1.562 µg/mL | first compound 3.124 µg/mL
partner 0.1562 µg/mL | 0.58 | 0.525 | 0.127
partner 0.3125 µg/mL | 0.568 | 0.534 | 0.261
partner 0.625 µg/mL | 0.663 | 0.582 | 0.348

fitness
Conditions | first compound 0.781 µg/mL | first compound 1.562 µg/mL | first compound 3.124 µg/mL
[1], partner 0.62 µg/mL, one replicate | 0.715 | 0.682 | 0.522
[1], partner 1.24 µg/mL, one replicate | 0.646 | 0.616 | 0.472
[1], partner 2.48 µg/mL, one replicate | 0.461 | 0.234 | 0.0834
[2], partner 0.1562 µg/mL, main component drawn | 0.863 | 0.698 | 0.538
[2], partner 0.3125 µg/mL, main component drawn | 0.968 | 0.831 | –
[2], partner 0.625 µg/mL, main component drawn | 0.933 | 0.862 | 0.654

main component drawn
Conditions | Bliss interaction score
[3] | -0.078
[4] | 0.065
[5] | 0.177
[6] | 0.154

COc1cccc2c1C(=O)c1c(O)c3c(c(O)c1C2=O)C[C@@](O)(C(=O)CO)C[C@@H]3O[C@H]1C[C@H](N)[C@H](O)[C@H](C)O1 [Doxorubicin] + CCC[C@@H]1C[C@@H](C(=O)N[C@@H]([C@H]2O[C@H](SC)[C@H](O)[C@@H](O)[C@H]2O)[C@@H](C)O)N(C)C1 [Lincomycin]
fitness
Conditions | partner 0.1 µg/mL | partner 0.2 µg/mL | partner 0.215 µg/mL | partner 0.4 µg/mL | partner 0.43 µg/mL | partner 0.8 µg/mL | partner 0.86 µg/mL
[2], first compound 0.625 µg/mL | 0.816 | 0.757 | – | – | – | – | –
[2], first compound 1.25 µg/mL | 0.853 | 0.835 | – | – | – | – | –
[2], first compound 2.5 µg/mL | 0.875 | 0.73 | – | – | – | – | –
[7], first compound 0.625 µg/mL | 0.903 | 0.882 | – | 0.914 | – | – | –
[7], first compound 1.25 µg/mL | 0.878 | 0.857 | – | 0.88 | – | – | –
[7], first compound 2.5 µg/mL | 0.726 | 0.668 | – | 0.65 | – | – | –
[8], first compound 0.25 µg/mL | – | 0.57 | 0.75 | 0.337 | 0.626 | 0.0441 | 0.427
[8], first compound 0.5 µg/mL | – | 0.558 | 0.744 | 0.325 | 0.67 | 0.0345 | 0.372
[8], first compound 1 µg/mL | – | 0.465 | 0.792 | 0.278 | 0.664 | 0.0189 | 0.307

fitness, [7], one replicate
Conditions | first compound 0.625 µg/mL | first compound 1.25 µg/mL | first compound 2.5 µg/mL
partner 0.8 µg/mL | 0.959 | 0.831 | 0.638
partner 1.6 µg/mL | 0.914 | 0.89 | 0.684

Conditions | Bliss interaction score
[3] | 0.0938
[4] | -0.0622
[5] | 0.164
[6] | 0.167

COc1cccc2c1C(=O)c1c(O)c3c(c(O)c1C2=O)C[C@@](O)(C(=O)CO)C[C@@H]3O[C@H]1C[C@H](N)[C@H](O)[C@H](C)O1 [Doxorubicin] + CC(=O)NC[C@H]1CN(c2ccc(N3CCOCC3)c(F)c2)C(=O)O1 [Linezolid]
fitness, one replicate
Conditions | first compound 0.625 µg/mL | first compound 1.25 µg/mL | first compound 2.5 µg/mL
[2], partner 1 µg/mL | 0.0276 | 0.0358 | 0.0376
[7], partner 0.0625 µg/mL | 0.956 | 0.901 | 0.574

fitness
Conditions | first compound 0.25 µg/mL | first compound 0.5 µg/mL | first compound 0.625 µg/mL | first compound 1 µg/mL | first compound 1.25 µg/mL | first compound 2.5 µg/mL
[2], partner 0.125 µg/mL | – | – | 0.762 | – | 0.814 | 0.716
[2], partner 0.25 µg/mL | – | – | 0.617 | – | 0.603 | 0.514
[2], partner 0.5 µg/mL | – | – | 0.223 | – | 0.204 | 0.16
[7], partner 0.125 µg/mL | – | – | 0.556 | – | 0.489 | 0.311
[7], partner 0.25 µg/mL | – | – | 0.0946 | – | 0.078 | 0.0654
[7], partner 0.5 µg/mL | – | – | 0.0377 | – | 0.0497 | 0.0425
[8], partner 0.105 µg/mL | 0.755 | 0.756 | – | 0.746 | – | –
[8], partner 0.2 µg/mL | 0.49 | 0.487 | – | 0.412 | – | –
[8], partner 0.21 µg/mL | 0.633 | 0.66 | – | 0.674 | – | –
[8], partner 0.4 µg/mL | 0.351 | 0.331 | – | 0.302 | – | –
[8], partner 0.42 µg/mL | 0.472 | 0.432 | – | 0.377 | – | –
[8], partner 0.8 µg/mL | 0.155 | 0.153 | – | 0.141 | – | –

Conditions | Bliss interaction score
[3] | -0.0705
[4] | -0.113
[5] | 0.0954
[6] | -0.0425
